Several values for one entry are separate records, joined by “and”; a condition that tells them apart may be missing. Equal entries are not always repeated.
System: patients with prior myocardial infarction (CARE study)
Assay: CARE aligned analysis (prospective and case/control design, white males): association of genotypes with pravastatin efficacy (Tables 13, 15)
Assay type: in vivo, human
Conditions: for Pravastatin vs placebo odds ratio, 1 rare allele / Pravastatin vs placebo odds ratio, 2 rare alleles / 2 rare alleles n/total (%), pravastatin patients / Pravastatin vs placebo odds ratio, 0 rare alleles: CARE, F MI/SD/NF MI; for Pravastatin Patients (%) / Pravastatin Patients n/total: F&NF MI, WM
Experimental: The data presented in Table 8 based on an association of genotypes with pravastatin efficacy of the CARE samples were further analyzed and presented in Table 13. The further analysis was performed to align the data obtained from the analysis of the CARE samples, which was a prospective study, to the analysis of the WOSCOP samples, which was a case/control study. Table 13 also presents an analysis of the association of genotypes with pravastatin efficacy in the WOSCOPs samples. Relative to the analysis performed on the data presented in Table 8, there are two significant differences to determine if the SNP influenced pravastatin efficacy. Data obtained from the CARE samples were separated by study design into two groups, those in the prospective study design group and those in the case/control study design group. The original care study contained 16 protocol defined cardiovascular disease defined endpoints and 150 other phenotypes. […] The control groups used to compare the data were also divided into two groups, the “all possible” control group and the “cleaner” control group. […] Because the participants in the WOSCOPs trial were all white males, only data obtained from white males in the CARE study were analysed. Data from the “all possible” and “cleaner” controls were compared to data obtained from the cases in the prospective study design while only data from “cleaner” controls were compared to cases in the case/control study design. The data from the case/control cohorts were analysed using conditional logistic regression (as opposed to logistic regression used for the original anaylsis).
The anaylsis was refined as described for both Tables 13 and 14.

[1] = IL9 hCV3275199, 0 Rare Alleles, CARE Case/Control, All Possible controls
[2] = IL9 hCV3275199, 0 Rare Alleles, CARE Case/Control, Cleaner controls
[3] = IL9 hCV3275199, 0 Rare Alleles, CARE Prospective, All Possible controls
[4] = IL9 hCV3275199, 0 Rare Alleles, CARE Prospective, Cleaner controls
[5] = IL9 hCV3275199, 1 Rare Allele, CARE Case/Control, All Possible controls
[6] = IL9 hCV3275199, 1 Rare Allele, CARE Case/Control, Cleaner controls
[7] = IL9 hCV3275199, 1 Rare Allele, CARE Prospective, All Possible controls
[8] = IL9 hCV3275199, 1 Rare Allele, CARE Prospective, Cleaner controls
[9] = ITGA4 hCV7618856, 0 Rare Alleles, CARE Case/Control, Cleaner controls
[10] = ITGA4 hCV7618856, 1 Rare Allele, CARE Case/Control, All Possible controls
[11] = ITGA4 hCV7618856, 1 Rare Allele, CARE Case/Control, Cleaner controls
[12] = ITGA4 hCV7618856, 1 Rare Allele, CARE Prospective, All Possible controls
[13] = KDR hCV16192174, 0 Rare Alleles, CARE Case/Control, All Possible controls
[14] = KDR hCV16192174, 0 Rare Alleles, CARE Case/Control, Cleaner controls
[15] = KDR hCV16192174, 0 Rare Alleles, CARE Prospective, All Possible controls
[16] = KDR hCV16192174, 0 Rare Alleles, CARE Prospective, Cleaner controls
[17] = KDR hCV16192174, 1 Rare Allele, CARE Case/Control, All Possible controls
[18] = KDR hCV16192174, 1 Rare Allele, CARE Case/Control, Cleaner controls
[19] = KDR hCV16192174, 1 Rare Allele, CARE Prospective, All Possible controls
[20] = KDR hCV16192174, 1 Rare Allele, CARE Prospective, Cleaner controls
[21] = KDR hCV22271999, 0 Rare Alleles, CARE Case/Control, All Possible controls
[22] = KDR hCV22271999, 0 Rare Alleles, CARE Case/Control, Cleaner controls
[23] = KDR hCV22271999, 0 Rare Alleles, CARE Prospective, All Possible controls
[24] = KDR hCV22271999, 0 Rare Alleles, CARE Prospective, Cleaner controls
[25] = KDR hCV22271999, 1 Rare Allele, CARE Case/Control, All Possible controls
[26] = KDR hCV22271999, 1 Rare Allele, CARE Case/Control, Cleaner controls
[27] = KDR hCV22271999, 1 Rare Allele, CARE Prospective, All Possible controls
[28] = KDR hCV22271999, 1 Rare Allele, CARE Prospective, Cleaner controls

## CC[C@H](C)C(=O)O[C@H]1C[C@H](O)C=C2C=C[C@H](C)[C@H](CC[C@@H](O)C[C@@H](O)CC(=O)O)[C@H]21 [pravastatin]
IL4R hCV2769554, Case/Control
  Pravastatin vs placebo odds ratio, 1 rare allele: 0.74 and 0.64
  Pravastatin vs placebo odds ratio, 2 rare alleles: 1.66 and 1.52
[1]
  Pravastatin Patients (%): (12.4%)
  Pravastatin Patients n/total: 111/896
[2]
  Pravastatin Patients (%): (17.5%)
  Pravastatin Patients n/total: 111/633
[3]
  Pravastatin Patients (%): (12.2%)
  Pravastatin Patients n/total: 111/911
[4]
  Pravastatin Patients (%): (17.2%)
  Pravastatin Patients n/total: 111/644
[5]
  Pravastatin Patients (%): (5.3%)
  Pravastatin Patients n/total: 15/283
[6]
  Pravastatin Patients (%): (8.2%)
  Pravastatin Patients n/total: 15/184
[7]
  Pravastatin Patients (%): (5.2%)
  Pravastatin Patients n/total: 15/290
[8]
  Pravastatin Patients (%): (8.0%)
  Pravastatin Patients n/total: 15/187
ITGA4 hCV7618856, 0 Rare Alleles, CARE Case/Control, All Possible controls
  Pravastatin Patients (%): (10.1%)
[9]
  Pravastatin Patients (%): (14.7%)
  Pravastatin Patients n/total: 120/817
ITGA4 hCV7618856, 0 Rare Alleles, CARE Prospective, All Possible controls
  Pravastatin Patients (%): (10.0%)
[10]
  Pravastatin Patients (%): (25.0%)
  Pravastatin Patients n/total: 5/20
[11]
  Pravastatin Patients (%): (31.3%)
  Pravastatin Patients n/total: 5/16
[12]
  Pravastatin Patients (%): (23.8%)
  Pravastatin Patients n/total: 5/21
ITGAE hCV1243283, Case/Control
  2 rare alleles n/total (%), pravastatin patients: (8.0%)
  Pravastatin vs placebo odds ratio, 0 rare alleles: 0.79
  Pravastatin vs placebo odds ratio, 1 rare allele: 0.84
  Pravastatin vs placebo odds ratio, 2 rare alleles: 0.24
[13]
  Pravastatin Patients (%): (9.0%)
  Pravastatin Patients n/total: 87/971
[14]
  Pravastatin Patients (%): (13.1%)
  Pravastatin Patients n/total: 87/666
[15]
  Pravastatin Patients (%): (8.8%)
  Pravastatin Patients n/total: 87/985
[16]
  Pravastatin Patients (%): (12.9%)
  Pravastatin Patients n/total: 87/675
[17]
  Pravastatin Patients (%): (17.2%)
  Pravastatin Patients n/total: 39/227
[18]
  Pravastatin Patients (%): (23.9%)
  Pravastatin Patients n/total: 39/163
[19]
  Pravastatin Patients (%): (16.6%)
  Pravastatin Patients n/total: 39/235
[20]
  Pravastatin Patients (%): (23.2%)
  Pravastatin Patients n/total: 39/168
KDR hCV16192174, Case/Control
  Pravastatin vs placebo odds ratio, 0 rare alleles: 0.66 and 0.58
  Pravastatin vs placebo odds ratio, 1 rare allele: 1.68
  Pravastatin vs placebo odds ratio, 2 rare alleles: 0.41 and 0.35
KDR hCV16192174, Prospective
  2 rare alleles n/total (%), pravastatin patients: (10.0%)
  Pravastatin vs placebo odds ratio, 0 rare alleles: 0.61
  Pravastatin vs placebo odds ratio, 1 rare allele: 1.41
  Pravastatin vs placebo odds ratio, 2 rare alleles: 0.30
[21]
  Pravastatin Patients (%): (9.0%)
  Pravastatin Patients n/total: 87/969
[22]
  Pravastatin Patients (%): (13.1%)
  Pravastatin Patients n/total: 87/665
[23]
  Pravastatin Patients (%): (8.9%)
  Pravastatin Patients n/total: 87/983
[24]
  Pravastatin Patients (%): (12.9%)
  Pravastatin Patients n/total: 87/674
[25]
  Pravastatin Patients (%): (17.3%)
  Pravastatin Patients n/total: 39/226
[26]
  Pravastatin Patients (%): (24.1%)
  Pravastatin Patients n/total: 39/162
[27]
  Pravastatin Patients (%): (16.7%)
  Pravastatin Patients n/total: 39/234
[28]
  Pravastatin Patients (%): (23.4%)
  Pravastatin Patients n/total: 39/167

Source: patent publication US9932637B2, “Genetic polymorphisms associated with cardiovascular disorders and drug response, methods of detection and uses thereof” (CELERA CORPORATION, priority 2003, dated 2018)
